Experimental data published in ChEMBL document CHEMBL4699467, “Progress towards a stable cephalosporin-halogenated phenazine conjugate for antibacterial prodrug applications” (Bioorg Med Chem Lett, 2020).
≈ marks a conversion by molar mass, not a printed value.

Key:
Staphylococcus aureus = experiment: Antibacterial activity against methicillin-resistant Staphylococcus aureus BAA-1707 assessed as inhibition of bacterial growth incubated for 16 to 18 hrs by CLSI protocol based two fold serial dilution method; assay type: functional; details: time hrs 16-18
[1] = Stability of the compound in methicillin-resistant Staphylococcus aureus BAA-1707 for 16 to 18 hrs; assay type: ADME; details: time 16-18 hrs

Row | Structure (SMILES) | MIC (Staphylococcus aureus) | Stabilty [1]
1 | Oc1c(Br)cc(Br)c2nc3ccccc3nc12 | 1 µM (≈ 0.354 µg/mL) | 
2 | O=C(Cc1cccs1)N[C@@H]1C(=O)N2C(C(=O)OC(c3ccccc3)c3ccccc3)=C(COC(=O)Oc3c(Br)cc(Br)c4nc5ccccc5nc34)CS[C@H]12 | > 100 µM | Stable
